Laboratory results from US20210277428A1, “NOVEL MALONYL-COA BIOSENSOR BASED ON TYPE III […] AND USE THEREOF” (KOREA ADVANCED INSTITUTE OF SCIENCE AND TECHNOLOGY, priority 2018, published 2021).

Legend:
[1] = tested on: P. putida pBBR1-rppA strain; experiment: RppA malonyl-CoA biosensor characterization with cerulenin in P. putida; type: cell-based, Pseudomonas putida; settings: MR-MOPS medium, increasing cerulenin concentration
[2] = tested on: E. coli BL21(DE3) strain containing the plasmid pTac-5′UTR-Sgr_rppA; experiment: RppA malonyl-CoA biosensor characterization with cerulenin in E. coli; type: cell-based
Experimental: After construction of a malonyl-CoA biosensor based on S. griseus RppA, the following experiment was performed in order to examine the applicability of the biosensor. First, the signal of the RppA malonyl-CoA biosensor was defined as the absorbance of culture supernatant at 340 nm (FIG. 3D). Generally, for characterizing a biosensor, different concentrations of a target compound has to be added to examine whether an increased signal occur. However, because malonyl-CoA is a substance that cannot pass through the cell membrane, adding malonyl-CoA to medium is meaningless. Thus, cerulenin (Sigma-aldrich, USA) known to block fatty acid biosynthetic pathways was used to indirectly characterize the biosensor (Omura S (1976), Bacteriol Rev 40:681-697.). Cerulenin blocks fatty acid biosynthetic pathways, and thus leads to the accumulation of malonyl-CoA, a fatty acid precursor. Thus, the concentration of malonyl-CoA in E. coli according to addition of different concentrations of cerulenin as described in previous studies was measured (Xu P, Li L, Zhang F, Stephanopoulos G, Koffas M (2014), Proc Natl Acad Sci USA 111:11299-11304). […] The inoculated cells were cultured in an incubator at 30° C. and 220 rpm for 16 hours, and then the growth (OD600) of the cells and the absorbance at 340 nm of the culture supernatant were measured. […]

[3] = tested on: E. coli BL21(DE3) strains expressing AaOKS, AaPKS4 and AaPKS5; experiment: AaOKS, AaPKS4 and AaPKS5 malonyl-CoA biosensor experiments using cerulenin; type: cell-based; settings: different concentrations of cerulenin added to the medium
[4] = tested on: C. glutamicum pCES-His-rppA strain; experiment: RppA malonyl-CoA biosensor characterization with cerulenin in C. glutamicum; type: cell-based, Corynebacterium glutamicum; settings: increasing cerulenin concentration

In the case of `C/C=C/C/C=C/CCC(=O)[C@H]1O[C@H]1C(N)=O` [cerulenin], the “normalized production of flaviolin” value [1] is reported as “increased as the cerulenin concentration in the corresponding strain increased”, the normalized signal [1] is reported as “increased as the cerulenin concentration in the corresponding strain increased” and the “normalized signal (absorbance of culture supernatant at 340 nm)” value ([2]; cerulenin 0, 5, 10, 15, 20, 25, 50, and 100 μM, 16 hours, 30° C., compared to the strain that does not express RppA) is reported as “obviously increased as the concentration of cerulenin increased”. The “normalized production of flaviolin” value ([2]; increasing cerulenin concentration, also observed by the naked eyes) was “increased with increasing cerulenin concentration”, the “signal (absorbance at 300 nm of the culture supernatant)” value [3] was “signal generated from each strain increased as the intracellular malonyl-CoA concentration increased” and the “normalized production of flaviolin” value [4] was “increased as the cerulenin concentration in the corresponding strain increased”. The normalized signal [4] was “increased as the cerulenin concentration in the corresponding strain increased”.
